Columns and labels:
[1] = biological target: Recombinant soluble N9 protein (N9 Spain) neuraminidase tetramer (Influenza A virus, UniProt K9MBB0); type: biochemical, Influenza A virus A/Anascrecca/Spain/1460/2008(H7N9)
[2] = biological target: NA of the whole Neth09H1N1 virus (Influenza A virus, UniProt C3PSV3); type: biochemical, Influenza virus A/Netherlands/602/2009 (Neth09H1N1); settings: for IC50: read-out: inhibition of NA of the whole virus in enzymatic MUNANA assay (IC50 μM)
[3] = test system: recombinant soluble tetrameric N1 and N9 proteins (neuraminidase); type: biochemical; settings: for IC50: read-out: inhibition of recombinant NA tetramers in enzymatic MUNANA assay (IC50 μM)
[4] = test system: HA on virus particle (Neth09H1N1); type: binding, Influenza virus A/Netherlands/602/2009 (Neth09H1N1)
[5] = test system: Neth09H1N1 virus infection of MDCK cells; type: cell-based, Influenza virus A/Netherlands/602/2009 (Neth09H1N1)
NA of Neth09H1N1 virus = type: biochemical, Influenza virus A/Netherlands/602/2009 (Neth09H1N1)
[6] = test system: HA on virus particle (Neth09H1N1); settings: cited from earlier work

| Structure (SMILES) | IC50 [2] [µM] | IC50 [3] [µM] | inhibition of virus-receptor binding (HA inhibition) by BLI [4] | CPE assay [5] [mM] | CPE reduction assay on MDCK cells, lowest concentration that inhibits CPE formation [5] [µM] | further results |
| --- | --- | --- | --- | --- | --- | --- |
| C#CCCCC[C@H](CC)O[C@@H]1OC(C(=O)O)=C[C@H](O)[C@H]1NC(C)=O [Compound 12] | 2.33 ± 0.005 | 6.4 ± 1 | significant HA binding | >5 | >5 | reduction of potency relative to parent OCM [1]: 6 fold; potency difference to OC (OC more potent) [2]: ca. 600 fold; potency difference to OC (OC more potent) [3]: ca. 600 fold |
| C#CCCCC[C@H](CC)O[C@H]1OC(C(=O)O)=C[C@H](O)[C@H]1NC(C)=O [Compound 14] | – | – | – | – | – | IC50, NA (N9 Spain) MUNANA enzyme inhibition [1]: no inhibition |
| C#CCCCC[C@@H](CC)O[C@H]1OC(C(=O)O)=C[C@H](O)[C@H]1NC(C)=O [Compound 15] | – | – | – | – | – | IC50, NA (N9 Spain) MUNANA enzyme inhibition [1]: no inhibition |
| CC[C@@H](CCCCc1cn([C@H]2[C@H](OC(C)=O)[C@@H](OC(C)=O)[C@H](n3cc(CCCC[C@H](CC)O[C@@H]4OC(C(=O)O)=C[C@H](O)[C@H]4NC(C)=O)nn3)O[C@@H]2COC(C)=O)nn1)O[C@@H]1OC(C(=O)O)=C[C@H](O)[C@H]1NC(C)=O [Compound 17a] | 9.4 ± 0.4 | 24.4 ± 17.5 | – | >5 | >5 | – |
| CC[C@@H](CCCCc1cn([C@H]2[C@H](O)[C@@H](O)[C@H](n3cc(-c4ccc(-c5cn([C@H]6[C@H](O)[C@@H](O)[C@H](n7cc(-c8ccc(-c9cn([C@@H]%10O[C@H](CO)[C@@H](n%11cc(CCCC[C@H](CC)O[C@@H]%12OC(C(=O)O)=C[C@H](O)[C@H]%12NC(C)=O)nn%11)[C@H](O)[C@H]%10O)nn9)cc8)nn7)O[C@@H]6CO)nn5)cc4)nn3)O[C@@H]2CO)nn1)O[C@@H]1OC(C(=O)O)=C[C@H](O)[C@H]1NC(C)=O [Compound 21] | 0.11 ± 0.004 | 1.3 ± 0.4 | largest effect | 0.45 ± 0.4 | 0.45 ± 0.4 | multivalency enhancement in comparison with monovalent 12 [2]: 20–30 fold; potency difference to OC (OC more potent) [2]: ca. 25 fold; potency difference to OC (OC more potent) [3]: ca. 100 fold; inhibition of virus binding to the BLI sensor, compound alone [4]: sufficient to prevent apparent viral binding to the sensor; inhibition of virus-receptor binding by BLI in the presence of OC (Figure 5a) [4]: inhibited virus-receptor binding; amount needed to prevent cell killing (CPE) relative to IC50 in MUNANA assay with the whole virus [5]: 4 fold; better CPE inhibitor than OC [5]: ca. 2 fold; NA inhibition judged from virus re-binding to regenerated sensor (NA of Neth09H1N1 virus): able to inhibit the NA |
| CC[C@@H](CCCCc1cn([C@H]2[C@H](O)[C@@H](O)[C@H](n3cc(-c4ccc(-c5cn([C@@H]6O[C@H](CO)[C@@H](n7cc(-c8cc(O)c(-c9cn([C@@H]%10O[C@H](CO)[C@@H](n%11cc(-c%12ccc(-c%13cn([C@@H]%14O[C@H](CO)[C@@H](n%15cc(CCCC[C@H](CC)O[C@@H]%16OC(C(=O)O)=C[C@H](O)[C@H]%16NC(C)=O)nn%15)[C@H](O)[C@H]%14O)nn%13)cc%12)nn%11)[C@H](O)[C@H]%10O)nn9)cc8O)nn7)[C@H](O)[C@H]6O)nn5)cc4)nn3)O[C@@H]2CO)nn1)O[C@@H]1OC(C(=O)O)=C[C@H](N)[C@H]1NC(C)=O [Compound 24] | 4.7 ± 0.9 | 10.6 ± 1.7 | did not have increased inhibitory activity compared to monovalent 12 | 0.84 ± 0.4 | 0.84 ± 0.4 | amount needed to prevent cell killing (CPE) relative to IC50 in MUNANA assay with the whole virus [5]: 0.2 fold |
| CCC(CC)O[C@@H]1C=C(C(=O)O)C[C@H](N)[C@H]1NC(C)=O [OC, oseltamivir carboxylate, reference compound] | 0.004 ± 0.001 | – | – | 1.0 ± 0.4 | 1.0 ± 0.4 | interference with HA-receptor binding [6]: does not interfere with HA-receptor binding |
| CCC(CC)O[C@@H]1OC(C(=O)O)=C[C@H](O)[C@H]1NC(C)=O [OCM, reference compound] | – | – | can be observed | – | – | – |

— publication PMC9150099, “Preventing Influenza A Virus Infection by Mixed Inhibition of Neuraminidase and Hemagglutinin by Divalent Inhibitors” (Journal of Medicinal Chemistry, 2022)
